Measured values reported in patent US9096591B2, “Tetracyclic compounds” (Medivation Technologies, Inc., priority 2007, dated 2015).
“And” between values parts separate entries of the source, which are not always exact repeats. Equal values may be shown once.

Legend:
Type in all cases: biochemical, Wistar rats
rat brain mitochondria [1] = test: Mitochondrial membrane potential (safranine test); conditions: suggested from membrane potential and calcium retention data (Table 15)
Method: The same experimental conditions were used for the assessment of alterations of the mitochondrial membrane potential, except that safranine was included in incubation medium at a final concentration of 10 mkM and succinate was added before the compounds of the invention. This concentration of safranine was determined before hand as the optimal compromise between signal/baseline ratio and interference of safranine itself with swelling induced by Ca/Pi (safranine tended to enhance Ca/Pi-induced swelling at concentrations above 20 mkM). Changes in the status of the mPT pore were assessed spectrophotometrically at 554 and 524 nm in a cuvette in a Beckman DU 640 spectrophotometer. A554-524 represents the characteristics of mitochondrial potential and A554-characteristics of mitochondrial swelling.

[2] = test system: synaptosomes of cortex of rat brain; test: Glutamate-induced 45Ca2+ uptake into synaptosomes; conditions: for % Ca of control (control-100%), glutamate-induced 45Ca2+ uptake into synaptosomes: rat cortex synaptosomes
In short: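 Cortical synaptosomes (P2 fraction) from 9-10-day-old Wistar rats, ~1.5-2 mg/ml protein in HEPES-buffered saline with glucose, pH 7.4, stimulated 5 min with 200 μM glutamate at 37° C. 45Ca2+ uptake measured by filtration and scintillation counting; specific uptake with compound expressed as percentage of glutamate-induced uptake, each corrected for unstimulated uptake.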

rat brain mitochondria [3] = test: Ca2+-induced swelling of mitochondria (MPT pore opening); conditions: rat brain mitochondria; for A540 increase in mitochondrial suspension after addition of 100 μM of compound: 100 μM compound; for IC50: read-out: IC50, Ca2+-induced (25-50 μM) swelling of brain mitochondria, Ca2+ 25-50 μM
Method: Rat liver and brain mitochondria were prepared from male Wistar rats. The rats were euthanized in a CO2 chamber followed by decapitation the procedure being in compliance with the Guidelines for Animal Experiments at IPAC RAS. […]
Brain mitochondria were isolated from the pooled forebrains of two rats. The modified method of Sims was used to isolate and purify brain mitochondria in a Percoll gradient. The brain was homogenized in “buffer A” (225 mM mannitol, 75 mM sucrose, 5 mM HEPES, 1 mM EGTA, pH 7.4 [KOH]) and centrifuged for 10 min at 1300 g. The supernatant was centrifuged for 10 min at 10000 g, and then the pellet was suspended in 15% Percoll and layered on a discontinuous gradient consisting of 40 and 23% Percoll, respectively, which was then centrifuged for 10 min at 30000 g without using brakes. The mitochondria were collected from the interface of the lower two layers and after resuspension in “buffer A”, the suspension was centrifuged at 16600 g for 10 min, then the pellet was resuspended in “buffer A”, BSA (10 mg/mL) was added to bind free fatty acids; and the suspensions was centrifuged again at 6300 g for 10 min. Following centrifugation the pelleted mitochondria were re-suspended in isolation medium without EGTA to achieve a protein concentration of 15-20 mg/ml.
Mitochondrial swelling caused by influx of solutes through open PT pores results in an increase in light transmission (i.e., a reduced turbidity). This turbidity change offers a convenient and frequently used assay of the MPT by measurement of absorbance in mitochondrial suspensions. In the present study, the MPT induced by Ca^2+ and inorganic phosphate (Ca/Pi) was monitored by absorbance changes at 540 nm in a cuvette in a Beckman DU 640 spectrophotometer in 1 ml of buffer A plus 0.8 μM rotenone, 5 mM succinate, 1 mM KH2PO4 and 0.5 mg or 0.2 mg protein of isolated liver or brain mitochondria, accordingly. Reaction was started by the addition of triggering agent (Ca^2+). Pre-treatment and reaction were performed at 30° C. Swelling rate was quantified as ΔA540/min/mg, calculated, in all cases, from a tangent to the steepest portion of the plot of A540 versus time.
Ca^2+-induced Swelling of mitochondria was used as the primary screening test for compounds influence on MPT pore opening. […] But the inhibition of swelling may be connected not only with direct inhibition of MPT pore opening but also with the impairment of respiratory function of mitochondria and with the compounds action on calcium transport into mitochondria. For the primary estimation of these possibilities the mitochondrial membrane potential and calcium retention capacity of mitochondria were measured. […] New synthesized compounds (except C-14 and C-43) alone induced an increase of brain mitochondria suspension turbidity. The mechanism of such effect needs additional investigations.

Cc1ccc2c(c1)c1c(n2CCc2nc(-c3ccccc3)cs2)CCN(C)C1 [Compound C1-5]
impairment of mitochondrial respiratory functions accompanying inhibition of MPT (rat brain mitochondria [1]): impairment of mitochondrial respiratory functions | inhibition of glutamate-induced 45Ca2+ uptake into synaptosomes ([2]; 0.5 μM): about 22.5% | glutamate-induced 45Ca2+ uptake into synaptosomes of rat cortex, % Ca of control (control-100%) ([2]; C 100 μM): 130% | % Ca of control (control-100%), glutamate-induced 45Ca2+ uptake into synaptosomes ([2]; compound 0.1 μM): 96.3 ± 5.6% | % Ca of control (control-100%), glutamate-induced 45Ca2+ uptake into synaptosomes ([2]; compound 0.5 μM): 77.5 ± 0.8% | % Ca of control (control-100%), glutamate-induced 45Ca2+ uptake into synaptosomes ([2]; compound 1 μM): 94 ± 3.4% | % Ca of control (control-100%), glutamate-induced 45Ca2+ uptake into synaptosomes ([2]; compound 5 μM): 96 ± 1.5% | % Ca of control (control-100%), glutamate-induced 45Ca2+ uptake into synaptosomes ([2]; compound 10 μM): 117.2 ± 1.3% | % Ca of control (control-100%), glutamate-induced 45Ca2+ uptake into synaptosomes ([2]; compound 50 μM): 115.4 ± 4.8% | % Ca of control (control-100%), glutamate-induced 45Ca2+ uptake into synaptosomes ([2]; compound 100 μM): 30.1 ± 7.4% | A540 increase in mitochondrial suspension after addition of 100 μM of compound (rat brain mitochondria [3]): 30 rel.units | IC50 (rat brain mitochondria [3]): 18 ± 16 µM

COc1ccc2c(c1)c1c(n2CCc2nc(-c3ccccc3)cs2)CCN(C)C1 [Compound C1-6]
A540 increase in mitochondrial suspension after addition of 100 μM of compound (rat brain mitochondria [3]): 1.5 rel.units | IC50 (rat brain mitochondria [3]): 12.7 ± 6.2 µM

CN1CCc2c(c3ccccc3n2CCc2noc(-c3ccccc3)n2)C1 [Compound C4-1]
impairment of mitochondrial respiratory functions accompanying inhibition of MPT (rat brain mitochondria [1]): impairment of mitochondrial respiratory functions | inhibition of glutamate-induced 45Ca2+ uptake into synaptosomes ([2]; 0.1-0.5 μM): about 20% | glutamate-induced 45Ca2+ uptake into synaptosomes of rat cortex, % Ca of control (control-100%) ([2]; C 0.1 μM): 79.4 ± 6.1% | glutamate-induced 45Ca2+ uptake into synaptosomes of rat cortex, % Ca of control (control-100%) ([2]; C 0.5 μM): 79.2 ± 10% | glutamate-induced 45Ca2+ uptake into synaptosomes of rat cortex, % Ca of control (control-100%) ([2]; C 1.0 μM): 106.1 ± 7.9% | glutamate-induced 45Ca2+ uptake into synaptosomes of rat cortex, % Ca of control (control-100%) ([2]; C 5.0 μM): 128% and 128 ± 4.5% | glutamate-induced 45Ca2+ uptake into synaptosomes of rat cortex, % Ca of control (control-100%) ([2]; C 10 μM): 107.6 ± 3.5% | glutamate-induced 45Ca2+ uptake into synaptosomes of rat cortex, % Ca of control (control-100%) ([2]; C 25 μM): 114.3 ± 0.5% | glutamate-induced 45Ca2+ uptake into synaptosomes of rat cortex, % Ca of control (control-100%) ([2]; C 50 μM): 110.1 ± 5.1% | glutamate-induced 45Ca2+ uptake into synaptosomes of rat cortex, % Ca of control (control-100%) ([2]; C 100 μM): 115.9 ± 8.8% | A540 increase in mitochondrial suspension after addition of 100 μM of compound (rat brain mitochondria [3]): 10 rel.units | IC50 (rat brain mitochondria [3]): 3.9 ± 1.6 µM

Cc1ccc2c(c1)c1c(n2CCc2noc(-c3ccccc3)n2)CCN(C)C1 [Compound C4-4]
impairment of mitochondrial respiratory functions accompanying inhibition of MPT (rat brain mitochondria [1]): impairment of mitochondrial respiratory functions | concentration at which glutamate-induced 45Ca2+ uptake into synaptosomes was increased [2]: 50 to 100 µM | concentration at which glutamate-induced 45Ca2+ uptake into synaptosomes was inhibited [2]: 0.5 µM | inhibition of glutamate-induced 45Ca2+ uptake into synaptosomes ([2]; 1 μM (maximal inhibition)): 20.5% | glutamate-induced 45Ca2+ uptake into synaptosomes of rat cortex, % Ca of control (control-100%) ([2]; C 0.1 μM): 111.2 ± 9.2% | glutamate-induced 45Ca2+ uptake into synaptosomes of rat cortex, % Ca of control (control-100%) ([2]; C 0.5 μM): 81.8 ± 14% | glutamate-induced 45Ca2+ uptake into synaptosomes of rat cortex, % Ca of control (control-100%) ([2]; C 1.0 μM): 79.5 ± 11.1% | glutamate-induced 45Ca2+ uptake into synaptosomes of rat cortex, % Ca of control (control-100%) ([2]; C 5.0 μM): 97.9 ± 4.3% | glutamate-induced 45Ca2+ uptake into synaptosomes of rat cortex, % Ca of control (control-100%) ([2]; C 10 μM): 99.9 ± 11.7% | glutamate-induced 45Ca2+ uptake into synaptosomes of rat cortex, % Ca of control (control-100%) ([2]; C 25 μM): 93.6 ± 15.7% | glutamate-induced 45Ca2+ uptake into synaptosomes of rat cortex, % Ca of control (control-100%) ([2]; C 50 μM): 137.5 ± 5.4% | glutamate-induced 45Ca2+ uptake into synaptosomes of rat cortex, % Ca of control (control-100%) ([2]; C 100 μM): 125.3 ± 11.2% | A540 increase in mitochondrial suspension after addition of 100 μM of compound (rat brain mitochondria [3]): 14 rel.units | IC50 (rat brain mitochondria [3]): 6.7 ± 1.2 µM

CN1CCc2c(c3cc(Cl)ccc3n2CCc2noc(-c3ccccc3)n2)C1 [Compound C4-6]
impairment of mitochondrial respiratory functions accompanying inhibition of MPT (rat brain mitochondria [1]): impairment of mitochondrial respiratory functions | concentration at which glutamate-induced 45Ca2+ uptake into synaptosomes was increased [2]: 50 to 100 µM | concentration at which glutamate-induced 45Ca2+ uptake into synaptosomes was inhibited [2]: 5 to 10 µM | glutamate-induced 45Ca2+ uptake into synaptosomes of rat cortex, % Ca of control (control-100%) ([2]; C 100 μM): 152.2% | % Ca of control (control-100%), glutamate-induced 45Ca2+ uptake into synaptosomes ([2]; compound 0.1 μM): 103.6 ± 11.4% | % Ca of control (control-100%), glutamate-induced 45Ca2+ uptake into synaptosomes ([2]; compound 0.5 μM): 96.9 ± 11.9% | % Ca of control (control-100%), glutamate-induced 45Ca2+ uptake into synaptosomes ([2]; compound 1 μM): 105.5 ± 5.2% | % Ca of control (control-100%), glutamate-induced 45Ca2+ uptake into synaptosomes ([2]; compound 5 μM): 86.5 ± 6.1% | % Ca of control (control-100%), glutamate-induced 45Ca2+ uptake into synaptosomes ([2]; compound 10 μM): 88.6 ± 2.8% | % Ca of control (control-100%), glutamate-induced 45Ca2+ uptake into synaptosomes ([2]; compound 50 μM): 122.1 ± 8.5% | % Ca of control (control-100%), glutamate-induced 45Ca2+ uptake into synaptosomes ([2]; compound 100 μM): 152.0 ± 6.7% | A540 increase in mitochondrial suspension after addition of 100 μM of compound (rat brain mitochondria [3]): 28 rel.units | IC50 (rat brain mitochondria [3]): 6 ± 1.2 µM

CN1CCc2c(c3cc(F)ccc3n2CCc2nc(-c3ccccc3)cs2)C1 [Compound C1-7]
concentration at which glutamate-induced 45Ca2+ uptake into synaptosomes was increased [2]: 5 to 100 µM | inhibition of glutamate-induced 45Ca2+ uptake into synaptosomes ([2]; 0.1-0.5 μM): ~27.3% | glutamate-induced 45Ca2+ uptake into synaptosomes of rat cortex, % Ca of control (control-100%) ([2]; C 100 μM): 139.8% | % Ca of control (control-100%), glutamate-induced 45Ca2+ uptake into synaptosomes ([2]; compound 0.1 μM): 77.5 ± 2.4% | % Ca of control (control-100%), glutamate-induced 45Ca2+ uptake into synaptosomes ([2]; compound 0.5 μM): 72.7 ± 0.3% | % Ca of control (control-100%), glutamate-induced 45Ca2+ uptake into synaptosomes ([2]; compound 1 μM): 98.6 ± 2.4% | % Ca of control (control-100%), glutamate-induced 45Ca2+ uptake into synaptosomes ([2]; compound 5 μM): 131.8 ± 8.8% | % Ca of control (control-100%), glutamate-induced 45Ca2+ uptake into synaptosomes ([2]; compound 10 μM): 134.5 ± 9.2% | % Ca of control (control-100%), glutamate-induced 45Ca2+ uptake into synaptosomes ([2]; compound 50 μM): 126.7 ± 7.7% | % Ca of control (control-100%), glutamate-induced 45Ca2+ uptake into synaptosomes ([2]; compound 100 μM): 139.8 ± 6.5% | A540 increase in mitochondrial suspension after addition of 100 μM of compound (rat brain mitochondria [3]): >30 rel.units | IC50 (rat brain mitochondria [3]): 28 ± 6 µM
